How the values were obtained:
[1] = molecular target: T1, Avi-KRAS G12R (1-169) GppNHp/RAF1 RBD-3xFLAG (52-151) (Homo sapiens, UniProt P01116, G12R); test: Raf1-KRAS G12R-GppNHP disruption HTRF assay (Biological Example 1); type: binding
T1 construct: Avi-KRAS G12R (1-169)
How it was run: (§1)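 Measured with a KRAS/RAF1 HTRF assay at pH 7.5 in 10% DMSO, with two 1 h room-temperature incubations with shaking.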

[2] = molecular target: T2, Avi-KRAS G12D (1-169) GppNHp/RAF1 RBD-3xFLAG (52-151) (Homo sapiens, UniProt P01116, G12D); test: Raf1-KRAS G12D-GppNHP disruption HTRF assay (Biological Example 1); type: binding
T2 construct: Avi-KRAS G12D (1-169)
How it was run: as §1

[3] = tested on: GP2d cells (KRAS G12D); test: Cell-based pERK HTRF assay in GP2d cell (Biological Example 2); details: GP2d, GP2d (KRAS G12D) cells, pERK HTRF
How it was run: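 60 min compound, 0.25% DMSO, 9-pt half-log curve from 1 μM or 100 nM; DMEM/10% FBS.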

[4] = molecular target: T3, Avi-KRAS WT (1-169) GppNHp/RAF1 RBD-3xFLAG (52-151) (Homo sapiens, UniProt P01116); test: Raf1-KRAS WT-GppNHP disruption HTRF assay (Biological Example 1); type: binding
T3 construct: Avi-KRAS WT (1-169)
How it was run: as §1

[5] = tested on: SW620 cells (KRAS G12V); test: Cell-based pERK HTRF assay in SW620 cell (Biological Example 4); details: Homo sapiens, SW-620, SW620 (KRAS G12V) cells, pERK HTRF
How it was run: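 This assay measures inhibition of ERK phosphorylation downstream of KRAS G12V in intact SW620 cells. Compounds are applied for 4 h over nine half-log concentrations starting at 1 μM, and pERK is quantified by HTRF.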

[6] = molecular target: T4, Avi-KRAS G12V (1-169) GppNHp/RAF1 RBD-3xFLAG (52-151) (Homo sapiens, UniProt P01116, G12V); test: Raf1-KRAS G12V-GppNHP disruption HTRF assay (Biological Example 1); type: binding
T4 construct: Avi-KRAS G12V (1-169)
How it was run: as §1

[7] = KRAS G12R, GppNHp-loaded, class symbols
[8] = KRAS G12D, GppNHp-loaded, class symbols
[9] = KRAS WT, GppNHp-loaded, class symbols
[10] = KRAS G12V, GppNHp-loaded, class symbols
[11] = KRAS G12R, GppNHp-loaded, Table 11
[12] = KRAS G12D, GppNHp-loaded, Table 11
[13] = KRAS WT, GppNHp-loaded, Table 11
[14] = KRAS G12V, GppNHp-loaded, Table 11

T4 sequence (P01116 1-169 isoform P01116-2 G12V): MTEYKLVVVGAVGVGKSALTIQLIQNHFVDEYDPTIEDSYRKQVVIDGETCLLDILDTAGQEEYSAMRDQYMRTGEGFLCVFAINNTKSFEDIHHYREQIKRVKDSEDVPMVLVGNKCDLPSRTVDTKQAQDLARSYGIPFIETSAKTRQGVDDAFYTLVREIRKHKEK
T3 sequence (P01116 1-169 isoform P01116-2): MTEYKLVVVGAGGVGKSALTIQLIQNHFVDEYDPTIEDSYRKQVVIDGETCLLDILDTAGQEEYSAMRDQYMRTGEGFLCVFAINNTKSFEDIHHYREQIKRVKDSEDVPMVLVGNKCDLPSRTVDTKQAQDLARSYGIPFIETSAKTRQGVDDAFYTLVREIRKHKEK
T2 sequence (P01116 1-169 isoform P01116-2 G12D): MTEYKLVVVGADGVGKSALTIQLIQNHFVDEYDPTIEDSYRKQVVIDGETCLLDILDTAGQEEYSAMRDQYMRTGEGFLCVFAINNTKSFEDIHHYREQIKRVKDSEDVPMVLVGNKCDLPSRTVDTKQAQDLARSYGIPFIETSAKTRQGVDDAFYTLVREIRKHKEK
T1 sequence (P01116 1-169 isoform P01116-2 G12R): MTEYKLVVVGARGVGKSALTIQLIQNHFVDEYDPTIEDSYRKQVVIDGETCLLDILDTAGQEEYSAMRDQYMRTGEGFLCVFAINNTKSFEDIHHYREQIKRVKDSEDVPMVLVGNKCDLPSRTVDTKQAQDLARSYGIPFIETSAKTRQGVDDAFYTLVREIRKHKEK

| Structure (SMILES) | IC50 ([1]; KRAS G12R-GppNHp/RAF1 RBD HTRF) [nM] | IC50 ([2]; KRAS G12D-GppNHp/RAF1 RBD HTRF) [nM] | IC50 [3] [nM] | IC50 ([4]; KRAS WT-GppNHp/RAF1 RBD HTRF) [nM] | IC50 [5] [nM] | IC50 ([6]; KRAS G12V-GppNHp/RAF1 RBD HTRF) [nM] | IC50 [1, 7] [nM] | IC50 [2, 8] [nM] | IC50 ([3]; class symbols) [nM] | IC50 [4, 9] [nM] | IC50 ([5]; class symbols) [nM] | IC50 [6, 10] [nM] | IC50 [1, 11] [nM] | IC50 [2, 12] [nM] | IC50 [4, 13] [nM] | IC50 [6, 14] [nM] |
| --- | --- | --- | --- | --- | --- | --- | --- | --- | --- | --- | --- | --- | --- | --- | --- | --- |
| CNC(=O)N1CC[C@@H](N(C)c2nc(OC[C@@]34CCCN3C[C@H](F)C4)nc3c(F)c(-c4ccc(F)c5sc(N)c(C#N)c45)c(C(F)(F)F)cc23)[C@H]1C [Compound 427] | 100 to 1000 | 100 to 1000 | < 100 | 100 to 1000 | < 100 | 100 to 1000 | – | – | – | – | – | – | – | – | – | – |
| N#Cc1c(N)sc2c(F)ccc(-c3c(C(F)(F)F)cc4c(N5CCn6nc(C(=O)N7CC(O)C7)cc6C5)nc(OC[C@@]56CCCN5C[C@H](F)C6)nc4c3F)c12 [Compound 502] | 100 to 1000 | 100 to 1000 | < 100 | 100 to 1000 | 100 to 1000 | 100 to 1000 | – | – | – | – | – | – | – | – | – | – |
| CCN(c1nc(OC[C@@]23CCCN2C[C@H](F)C3)nc2c(F)c(-c3ccc(F)c4sc(N)c(C#N)c34)c(C(F)(F)F)cc12)[C@H]1CCN(C(=O)N2CC3(COC3)C2)C1 (atropisomer, axis not shown) [Compound 637] | – | – | – | – | – | – | < 100 | < 100 | < 100 | < 100 | < 100 | < 100 | – | – | – | – |
| CCN(c1nc(OC[C@@]23CCCN2C[C@H](F)C3)nc2c(F)c(-c3ccc(F)c4sc(N)c(C#N)c34)c(C(F)(F)F)cc12)[C@@H]1CCS(=O)(=O)C1 [Compound 477] | 100 to 1000 | 100 to 1000 | < 100 | 100 to 1000 | < 100 | 100 to 1000 | – | – | – | – | – | – | – | – | – | – |
| CNC(=O)CN(C)c1nc(OC[C@@]23CCCN2C[C@H](F)C3)nc2c(F)c(-c3ccc(F)c4sc(N)c(C#N)c34)c(C(F)(F)F)cc12 [Compound 209] | – | – | < 100 | – | 100 to 1000 | – | – | – | – | – | – | – | 100 to 1000 | 100 to 1000 | 100 to 1000 | 100 to 1000 |
| N#Cc1c(N)sc2c(F)ccc(-c3c(C(F)(F)F)cc4c(N5CCCC(O)CC5)nc(OC[C@@]56CCCN5C[C@H](F)C6)nc4c3F)c12 (stereo partly drawn) [Compound 267] | – | – | < 100 | – | < 100 | – | – | – | – | – | – | – | < 100 | < 100 | 100 to 1000 | 100 to 1000 |
| CC(=O)N1C[C@@H]2CCCN(c3nc(OC[C@@]45CCCN4C[C@H](F)C5)nc4c(F)c(-c5ccc(F)c6sc(N)c(C#N)c56)c(C(F)(F)F)cc34)[C@@H]2C1 [Compound 451] | 1000 to 10000 | 100 to 1000 | < 100 | 100 to 1000 | 100 to 1000 | 1000 to 10000 | – | – | – | – | – | – | – | – | – | – |
| CCC(=O)N1C[C@@H](N(CC)c2nc(OC[C@@]34CCCN3C[C@H](F)C4)nc3c(F)c(-c4ccc(F)c5sc(N)c(C#N)c45)c(C(F)(F)F)cc23)C[C@@H]1COC (atropisomer, axis not shown) [Compound 648] | – | – | – | – | – | – | < 100 | < 100 | < 100 | 100 to 1000 | < 100 | < 100 | – | – | – | – |
| N#Cc1c(N)sc2c(F)ccc(-c3c(C(F)(F)F)cc4c(N5CC[C@@H]5CF)nc(OC[C@@]56CCCN5C[C@H](F)C6)nc4c3F)c12 [Compound 272] | – | – | < 100 | – | < 100 | – | – | – | – | – | – | – | 100 to 1000 | 100 to 1000 | 100 to 1000 | 100 to 1000 |
| CC(=O)N1CCN(c2nc(OC[C@@]34CCCN3C[C@H](F)C4)nc3c(F)c(-c4ccc(F)c5sc(N)c(C#N)c45)c(C(F)(F)F)cc23)C[C@H]1C [Compound 229] | – | – | < 100 | – | < 100 | – | – | – | – | – | – | – | 1000 to 10000 | 100 to 1000 | 1000 to 10000 | 1000 to 10000 |
| CCC(=O)N1CC[C@@H](N(C)c2nc(OC[C@@]34CCCN3C[C@H](F)C4)nc3c(F)c(-c4ccc(F)c5sc(N)c(C#N)c45)c(C(F)(F)F)cc23)[C@H]1CC [Compound 432] | 100 to 1000 | 1000 to 10000 | < 100 | 100 to 1000 | 100 to 1000 | 1000 to 10000 | – | – | – | – | – | – | – | – | – | – |
| CCN(c1nc(OC[C@@]23CCCN2C[C@H](F)C3)nc2c(F)c(-c3ccc(F)c4sc(N)c(C#N)c34)c(C(F)(F)F)cc12)[C@H]1C[C@H]2CN(C3CCC3)C(=O)N2C1 (atropisomer, axis not shown) [Compound 757] | – | – | – | – | – | – | < 100 | < 100 | < 100 | < 100 | < 100 | < 100 | – | – | – | – |
